US20090247495A1, “CU[…] AND USES THEREOF” (priority 2007, published 2009)

What was measured:
[1] = tested on: Human leukemia cell lines CCRF-CEM, K562, MOLT-4, RPMI-8226 and SR; assay: Cell proliferation assay using SRB, 5 human leukemia cell lines; format: cell-based; conditions: 48 hours treatment, range over all leukemia cell lines
Description: Human leukemia cell lines CCRF-CEM, K562, MOLT-4, RPMI-8226 and SR, purchased from the National Cancer Institute (NCI), were cultured in RPMI 1640 medium supplemented with 5%(v/v) fetal Bovine […] and 100 units/ml penicillin and 100 units/ml streptomycin in a humidified 5% CO2 atmosphere at 37° C. • 6.1.2 Reagents and Antibodies
All 5 human leukemia cells were screened by the cell proliferation assay using SRB to quantitative cell protein mass following cucurbitacin B treatment. The experiments were repeated in triplicate. Appropriate number of cells (depends on the doubling time of cells) were seeded into a 96-well tissue culture plate and growth in the indicated medium in presence of different dosages of cucurbitacin B for 2 days. Afterwards 25 μl 80%TCA reagent was added into each well to fix the cells and the plates were incubated at 4° C. at least for 1 hour. Then the plates were washed with tap water and air dried. […] The plates were air dried and dissolved by 100 μl 1 OmMTrizma-base solution and the absorbance was measured at 515 nm using FLUOstar OPTIMA equipment. • 6.1.4 Flow Cytometry for Apoptosis Analysis
Appropriate number of cell density were seeded into a 96 well culture plate and treated with different doses of cucurbitacin B for 2 days. The growth inhibition effects of cucurbitacin B on the cells were detected using SRB.

HL60 and U937 cells [2] = assay: Cell cycle analysis by flow cytometry, myeloid leukemia cells; format: cell-based, human; conditions: 96 hours
Description: HL60 and U937 cells were incubated with vary doses of cucurbitacin B for 96 hours at 37° C. For analysis of cell differentiaion, cells were then incubated with either R-phycoerythrin-conjugated murine anti-human CD11b antibody (DAKO, Carpinteria, Calif.). For analysis of cell cycle, cells were washed and fixed with chilled methanol, and incubated on ice for 30 minutes prior to staining with propidium iodide. All analyses were performed by flow cytometry.

HL60 and U937 cells [3] = assay: Cytoskeletal staining (F-actin, confocal); format: cell-based, human; conditions: two days
Description: HL60 and U937 cells were incubated with cucurbitacin B for two days at 37° C. Then the cells were centrifuged and fixed in 4% paraformaldehyde, permeabilized with 0.1% Triton X-100 in PBS, and incubated with FITC-conjugated anti-β-tubulin antibody, followed by rhodamine-phalloidin to detect filamentous F-actin. Confocal images were collected on a Leica microscope. […] Untreated HL 60 and U937 cells were depicted in FIGS. 15A and 15C, and cultured HL 60 and U937 cells were depicted in FIGS. 15B and 15D. • 6.2.8 Cucurbitacin B and Cucurbitacin D Inhibited Stat3 Activation and Stimulated Erk and Hsp27 Activation in HepG2, HT29 and MCF-7 Cells

Erk1/2 = assay: Western blot of Erk1/2 in HepG2, HT29 and MCF-7 cells; format: cell-based, human
Description: The human cancer cells line were serum starved for 18 hours prior to CuB/CuD treatment. Cells were incubated in a 6-well plate filled with 5 ml growth medium (RPMI with 0.2% FBS and 1% PS) at the cell density of 1×10^5 cells/ml, in the presence or absence of two different dosages of CuB/CuD for various time intervals. The drug treatment was terminated by centrifugation at 1,500 rpm for 5 minutes and the cells were rinsed twice with phosphate-buffered saline and lysed at 4° C. in a lysis buffer containing 50 mM Tris-HCl, pH7.5, 100 mM NaCl, 5 mM EDTA, 40 mM NaP2O7, 1% Triton X-100, 1 mM dithiothreitol, 200 μM Na3VO4, 100 uM phenylmethysufonyl fluoride, 2 μg/ml leupeptin, 4 μg/ml aprotinin and 0.7 μg/ml pepstatin. The insoluble protein lysate were removed by centrifugation for 10 minutes at 13,000 rpm. Fifteen micrograms of protein lysate was resolved using 10% SDS-polyacryamide gel electrophoresis (PAGE) and then subjected to western blot anaylsis. Western blots were performed with anti-Stat3, anti-Erk1/2 and anti-hsp27 antibodies specific for phosphor- and total Stat3, Erk and hsp27 proteins. The protein bands were then visualized with the Enhanced Chemiluminescence Plus (ECL Plus) detection system (Amersham). • 6.2.8.1 Inhibition Effect Cucurbitacin B/Cucurbitacin D on Stat3 Activation in HepG2 and HT29 Cells
Cells were incubated either with CuB or CuD (25 ug/ml or the dosage of IC50) for various time intervals (5, 10 or 30 mins, 1 or 4 hours). The Stat3 activation was detected by western blot.

MAPK signaling pathway = assay: Western blot of MAPK / cell cycle signaling proteins in HL60 cells; format: cell-based, human
Description: Control cells, as well as cells treated with cucurbitacin B or cucurbitacin D, were harvested and collected by centrifugation. Whole cell extracts were then prepared by lysing the cells using 4% sodium dodecyl sulfate (SDS) gel sample buffer. Cell extracts were boiled for 10 min and chilled on ice, subjected to 12% SDS-polyacrylamide gel electrophoresis, and transferred to a PVDF membrane. Each membrane was cut into to two pieces with one piece incubated at 4° C. overnight with antibodies against cell cycle signaling proteins, such as ERK, phosphorlated-ERK, p38, phosphorlated-p38, Cyclin E, Retinoblastoma, phosphalated-Retinoblastoma and c-myc, and apoptotic protein (PARP). β-actin was used as a control for protein loading. All antibodies were obtained from Cell signaling Technologies (USA). Then membranes were incubated at 37° C. for 1 h with secondary antibody conjugated with peroxidase, and the signal was detected using chemiluminescence detection reagent. The relative protein level was calculated as the ratio of the optical density of the protein of interest to that of β-actin.

Panc-1 and SW cells = assay: Cell cycle analysis by flow cytometry, pancreatic cells; format: cell-based, human; conditions: different periods
Description: Panc-1 and SW cells were incubated with cucurbitacin B for different periods at 37° C. At specific time points, cells were washed and fixed with chilled 80% ethanol, and incubated on ice for 30 min. prior to staining with propidium iodide. All analyses were performed by flow cytometry.

With `CC(=O)OC(C)(C)/C=C/C(=O)[C@](C)(O)C1[C@H](O)C[C@@]2(C)C3CC=C4C(C[C@H](O)C(=O)C4(C)C)[C@]3(C)C(=O)C[C@]12C` (some centres unmarked) [cucurbitacin B] the GI50 [1] was 0.0156 to 0.0353 µM, the cell cycle effect (HL60 and U937 cells [2]) was “significant S-phase cell cycle arrest” and the “effect on cytoskeletal network (F-actin)” value (HL60 and U937 cells [3]) was “rapid and improper polymerization of the F-actin network”. For the same molecule, the “expression of Erk1/2” value (Erk1/2; HT29, 5 minutes of treatment) was “up-regulated the expression of Erk1/2 significantly”, the “expression of Erk1/2” value (Erk1/2; HepG2, 30 minutes of treatment) was “up-regulated the expression of Erk1/2 significantly” and the Erk activation (Erk1/2; MCF-7 cells, 5 minutes) was “significant Erk activation”. For the same molecule, the “regulation of ERK, cyclin E, retinoblastoma phosphorylation and c-myc” value (MAPK signaling pathway) was “ERK activation, followed by cyclin E down-regulation, inhibition of retinoblastoma's phosphorylation, and ultimately down-regulation of c-myc” and the cell cycle effect (Panc-1 and SW cells) was “arrest at G1 and/or G2 phase”.
